Reference: paper doi:10.1101/2021.04.08.439011v1 (biorxiv, 2021)
Like-named read-outs stand apart in the source and are kept apart here.

Experiments:
FLT3(D835H) = FLT3(D835H) (Homo sapiens, UniProt P36888, D835H); settings: 0.1 µM; binder
GAK = GAK (Homo sapiens, UniProt O14976); settings: 0.1 µM; binder
GRK7 = GRK7 (Homo sapiens, UniProt Q8WTQ7); settings: 0.1 µM; binder
HASPIN = HASPIN (Homo sapiens, UniProt Q8TF76); settings: 0.1 µM; binder
MAP4K2 = MAP4K2 (Homo sapiens, UniProt Q12851); settings: 0.1 µM; binder
TIE1 = TIE1 (Homo sapiens, UniProt P35590); settings: 0.1 µM; binder
DYRK2 = DYRK2 (Homo sapiens, UniProt Q92630); settings: 0.1 µM; binder
MST4 = MST4 (Homo sapiens, UniProt Q9P289); settings: 0.1 µM; binder
CSNK1G1 = CSNK1G1 (Homo sapiens, UniProt Q9HCP0); settings: 0.1 µM; binder
SGK = SGK (Homo sapiens, UniProt O00141); settings: 0.1 µM; binder
SBK1 = SBK1 (Homo sapiens, UniProt Q52WX2); settings: 0.1 µM; binder
PRKG1 = PRKG1 (Homo sapiens, UniProt Q13976); settings: 0.1 µM; binder
EPHA4 = EPHA4 (Homo sapiens, UniProt P54764); settings: 0.1 µM; binder
CDK7 = CDK7 (Homo sapiens, UniProt P50613); settings: 0.1 µM; binder
CDKL2 = CDKL2 (Homo sapiens, UniProt Q92772); settings: 0.1 µM; binder
ABL1(Q252H) = ABL1(Q252H) (Homo sapiens, UniProt P00519, Q252H); settings: 0.1 µM, binder
ACVRL1 = ACVRL1 (Homo sapiens, UniProt P37023); settings: 0.1 µM; binder
VPS34 = VPS34 (Homo sapiens, UniProt Q8NEB9); settings: 0.1 µM; binder
FES = FES (Homo sapiens, UniProt P07332); settings: 0.1 µM; binder
YANK2 = YANK2 (Homo sapiens, UniProt Q9NY57); settings: 0.1 µM; binder
MARK1 = MARK1 (Homo sapiens, UniProt Q9P0L2); settings: 0.1 µM; binder
MAP4K3 = MAP4K3 (Homo sapiens, UniProt Q8IVH8); settings: 0.1 µM; binder
CSF1R = CSF1R (Homo sapiens, UniProt P07333); settings: 0.1 µM, binder
KIT(V559D) = KIT(V559D) (Homo sapiens, UniProt P10721, V559D); settings: 0.1 µM; binder
LATS1 = LATS1 (Homo sapiens, UniProt O95835); settings: 0.1 µM; binder
EPHA8 = EPHA8 (Homo sapiens, UniProt P29322); settings: 0.1 µM; binder
YSK4 = YSK4 (Homo sapiens, UniProt Q56UN5); settings: 0.1 µM; binder
CDK2 = CDK2 (Homo sapiens, UniProt P24941); settings: 0.1 µM; binder
DCAMKL2 = DCAMKL2 (Homo sapiens, UniProt Q8N568); settings: 0.1 µM; binder
CDK3 = CDK3 (Homo sapiens, UniProt Q00526); settings: 0.1 µM; binder
PLK2 = PLK2 (Homo sapiens, UniProt Q9NYY3); settings: 0.1 µM; binder
PLK2, sequence (Q9NYY3 whole entry): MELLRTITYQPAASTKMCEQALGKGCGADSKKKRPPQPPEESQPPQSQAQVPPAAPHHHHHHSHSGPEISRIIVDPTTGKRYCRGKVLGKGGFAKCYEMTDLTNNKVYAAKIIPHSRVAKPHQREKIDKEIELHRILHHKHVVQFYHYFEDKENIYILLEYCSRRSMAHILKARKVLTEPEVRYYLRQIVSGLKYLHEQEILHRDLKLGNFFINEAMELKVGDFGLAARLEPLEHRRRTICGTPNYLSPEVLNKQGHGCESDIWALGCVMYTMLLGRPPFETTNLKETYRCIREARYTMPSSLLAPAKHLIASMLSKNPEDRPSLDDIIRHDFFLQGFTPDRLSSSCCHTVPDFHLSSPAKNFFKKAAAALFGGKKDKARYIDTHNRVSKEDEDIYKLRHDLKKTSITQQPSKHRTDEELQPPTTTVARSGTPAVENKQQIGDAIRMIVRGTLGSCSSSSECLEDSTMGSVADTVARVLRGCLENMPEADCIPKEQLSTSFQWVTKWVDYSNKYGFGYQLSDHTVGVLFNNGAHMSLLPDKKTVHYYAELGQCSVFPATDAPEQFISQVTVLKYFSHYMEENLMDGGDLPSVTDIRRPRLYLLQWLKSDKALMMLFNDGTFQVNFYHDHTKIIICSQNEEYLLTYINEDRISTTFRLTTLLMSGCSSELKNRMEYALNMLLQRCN

CSF1R, sequence (P07333 whole entry): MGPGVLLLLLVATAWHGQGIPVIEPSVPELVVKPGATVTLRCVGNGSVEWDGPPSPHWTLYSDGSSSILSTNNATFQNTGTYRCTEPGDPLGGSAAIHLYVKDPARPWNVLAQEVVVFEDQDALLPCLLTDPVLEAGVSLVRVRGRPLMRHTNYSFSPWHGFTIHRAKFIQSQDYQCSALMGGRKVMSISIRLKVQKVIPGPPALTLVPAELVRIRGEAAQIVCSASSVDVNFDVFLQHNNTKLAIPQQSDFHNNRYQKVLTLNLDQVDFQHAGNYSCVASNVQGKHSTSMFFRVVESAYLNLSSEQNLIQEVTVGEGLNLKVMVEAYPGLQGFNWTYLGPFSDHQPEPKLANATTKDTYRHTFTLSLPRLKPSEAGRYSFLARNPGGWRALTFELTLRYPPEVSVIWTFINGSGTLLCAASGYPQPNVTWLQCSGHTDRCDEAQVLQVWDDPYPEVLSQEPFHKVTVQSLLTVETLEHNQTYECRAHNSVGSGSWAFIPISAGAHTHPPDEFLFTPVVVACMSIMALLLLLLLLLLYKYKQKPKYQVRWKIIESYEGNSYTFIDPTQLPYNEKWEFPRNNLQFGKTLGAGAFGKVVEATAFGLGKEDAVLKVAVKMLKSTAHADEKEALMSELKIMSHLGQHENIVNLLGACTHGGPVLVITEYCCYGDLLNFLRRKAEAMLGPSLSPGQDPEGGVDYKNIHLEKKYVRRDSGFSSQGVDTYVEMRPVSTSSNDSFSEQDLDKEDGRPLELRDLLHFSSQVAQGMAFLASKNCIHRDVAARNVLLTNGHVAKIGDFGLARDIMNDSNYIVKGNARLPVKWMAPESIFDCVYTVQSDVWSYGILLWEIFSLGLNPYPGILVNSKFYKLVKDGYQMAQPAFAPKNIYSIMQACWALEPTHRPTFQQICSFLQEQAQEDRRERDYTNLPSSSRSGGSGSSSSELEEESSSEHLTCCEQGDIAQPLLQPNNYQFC
SGK, sequence (O00141 whole entry): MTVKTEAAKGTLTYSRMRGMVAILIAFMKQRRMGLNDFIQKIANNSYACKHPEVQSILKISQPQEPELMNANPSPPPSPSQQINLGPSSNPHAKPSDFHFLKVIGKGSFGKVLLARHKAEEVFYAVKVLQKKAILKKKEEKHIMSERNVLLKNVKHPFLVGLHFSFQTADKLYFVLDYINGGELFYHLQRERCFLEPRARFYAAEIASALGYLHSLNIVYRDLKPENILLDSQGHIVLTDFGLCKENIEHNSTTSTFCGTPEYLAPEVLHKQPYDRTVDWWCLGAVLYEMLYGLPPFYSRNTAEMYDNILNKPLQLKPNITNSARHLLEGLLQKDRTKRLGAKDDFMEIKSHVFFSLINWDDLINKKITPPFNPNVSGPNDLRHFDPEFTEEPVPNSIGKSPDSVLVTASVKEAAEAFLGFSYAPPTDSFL
VPS34, sequence (Q8NEB9 whole entry): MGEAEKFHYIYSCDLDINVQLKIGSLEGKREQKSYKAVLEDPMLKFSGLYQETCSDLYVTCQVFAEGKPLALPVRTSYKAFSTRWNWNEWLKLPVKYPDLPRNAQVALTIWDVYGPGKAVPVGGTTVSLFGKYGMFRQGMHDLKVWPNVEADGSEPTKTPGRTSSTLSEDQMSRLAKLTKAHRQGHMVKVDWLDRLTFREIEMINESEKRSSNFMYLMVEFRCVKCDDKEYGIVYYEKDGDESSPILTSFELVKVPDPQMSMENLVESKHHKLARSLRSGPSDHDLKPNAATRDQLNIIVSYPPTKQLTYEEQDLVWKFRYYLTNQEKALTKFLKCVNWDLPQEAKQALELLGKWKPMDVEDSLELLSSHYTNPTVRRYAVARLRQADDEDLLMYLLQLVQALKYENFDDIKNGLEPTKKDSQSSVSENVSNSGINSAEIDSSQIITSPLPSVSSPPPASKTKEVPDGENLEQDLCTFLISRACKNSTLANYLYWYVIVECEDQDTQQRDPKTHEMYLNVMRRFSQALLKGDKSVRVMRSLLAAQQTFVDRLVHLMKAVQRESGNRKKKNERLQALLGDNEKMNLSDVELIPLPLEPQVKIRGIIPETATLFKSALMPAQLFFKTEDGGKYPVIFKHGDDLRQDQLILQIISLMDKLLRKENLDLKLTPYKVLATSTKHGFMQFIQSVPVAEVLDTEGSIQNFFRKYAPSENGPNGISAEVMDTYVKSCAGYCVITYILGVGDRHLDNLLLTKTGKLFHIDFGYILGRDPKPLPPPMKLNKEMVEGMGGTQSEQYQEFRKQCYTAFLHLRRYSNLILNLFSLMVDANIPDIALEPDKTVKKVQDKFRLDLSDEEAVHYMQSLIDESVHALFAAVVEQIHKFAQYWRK
MARK1, sequence (Q9P0L2 whole entry): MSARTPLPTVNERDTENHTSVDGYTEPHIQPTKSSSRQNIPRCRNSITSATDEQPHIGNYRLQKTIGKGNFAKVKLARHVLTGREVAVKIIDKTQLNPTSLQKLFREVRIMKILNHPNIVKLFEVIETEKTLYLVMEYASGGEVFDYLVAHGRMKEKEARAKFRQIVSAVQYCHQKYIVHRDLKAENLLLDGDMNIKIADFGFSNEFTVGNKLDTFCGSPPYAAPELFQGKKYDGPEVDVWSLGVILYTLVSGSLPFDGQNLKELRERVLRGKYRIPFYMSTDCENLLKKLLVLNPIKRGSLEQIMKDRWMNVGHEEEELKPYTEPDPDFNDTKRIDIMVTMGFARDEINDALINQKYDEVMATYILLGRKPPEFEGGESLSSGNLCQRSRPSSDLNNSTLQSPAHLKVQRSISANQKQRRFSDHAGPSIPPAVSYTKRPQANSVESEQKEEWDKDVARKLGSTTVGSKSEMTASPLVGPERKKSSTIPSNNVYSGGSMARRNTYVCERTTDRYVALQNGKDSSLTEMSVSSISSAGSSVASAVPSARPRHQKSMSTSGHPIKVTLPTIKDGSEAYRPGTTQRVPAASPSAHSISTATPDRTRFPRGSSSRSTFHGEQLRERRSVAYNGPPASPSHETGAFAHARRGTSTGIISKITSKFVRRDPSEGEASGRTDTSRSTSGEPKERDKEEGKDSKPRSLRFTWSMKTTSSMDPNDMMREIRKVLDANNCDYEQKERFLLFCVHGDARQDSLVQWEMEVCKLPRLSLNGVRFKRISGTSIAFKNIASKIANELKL
YANK2, sequence (Q9NY57 whole entry): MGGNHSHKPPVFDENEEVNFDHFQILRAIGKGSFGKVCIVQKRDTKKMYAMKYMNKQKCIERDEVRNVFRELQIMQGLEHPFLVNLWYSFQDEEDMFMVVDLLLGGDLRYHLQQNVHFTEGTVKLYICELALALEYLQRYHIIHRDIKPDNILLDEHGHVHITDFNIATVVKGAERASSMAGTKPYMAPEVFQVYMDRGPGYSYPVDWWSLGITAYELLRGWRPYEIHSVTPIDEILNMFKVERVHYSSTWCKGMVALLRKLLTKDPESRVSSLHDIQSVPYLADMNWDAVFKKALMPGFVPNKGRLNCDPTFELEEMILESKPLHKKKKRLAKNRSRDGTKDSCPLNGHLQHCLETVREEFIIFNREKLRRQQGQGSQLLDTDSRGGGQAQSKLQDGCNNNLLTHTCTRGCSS
MST4, sequence (Q9P289 whole entry): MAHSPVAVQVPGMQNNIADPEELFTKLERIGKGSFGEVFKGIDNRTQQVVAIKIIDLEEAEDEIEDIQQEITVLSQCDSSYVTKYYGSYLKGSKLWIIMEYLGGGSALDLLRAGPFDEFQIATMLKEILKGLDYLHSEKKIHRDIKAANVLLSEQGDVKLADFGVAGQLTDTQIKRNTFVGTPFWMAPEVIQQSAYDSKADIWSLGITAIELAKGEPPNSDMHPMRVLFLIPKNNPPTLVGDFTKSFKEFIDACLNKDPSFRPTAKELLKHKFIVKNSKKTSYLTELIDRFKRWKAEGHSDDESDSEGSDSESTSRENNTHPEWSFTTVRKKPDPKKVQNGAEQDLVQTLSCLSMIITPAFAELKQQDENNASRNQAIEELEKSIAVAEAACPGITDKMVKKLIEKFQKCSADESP
CSNK1G1, sequence (Q9HCP0 whole entry): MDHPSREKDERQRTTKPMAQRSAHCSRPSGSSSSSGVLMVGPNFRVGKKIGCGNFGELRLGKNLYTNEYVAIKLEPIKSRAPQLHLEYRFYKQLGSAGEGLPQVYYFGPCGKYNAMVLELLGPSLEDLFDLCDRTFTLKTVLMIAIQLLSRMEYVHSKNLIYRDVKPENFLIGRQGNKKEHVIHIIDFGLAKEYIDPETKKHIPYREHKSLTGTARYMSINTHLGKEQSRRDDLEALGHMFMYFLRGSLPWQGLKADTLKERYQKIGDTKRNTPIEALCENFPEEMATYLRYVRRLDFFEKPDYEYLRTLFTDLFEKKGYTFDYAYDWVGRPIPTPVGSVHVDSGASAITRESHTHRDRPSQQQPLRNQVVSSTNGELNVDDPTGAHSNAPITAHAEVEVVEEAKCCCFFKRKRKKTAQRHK

With `CNc1ncc2cc(-c3ccc(-c4cccc(C)n4)cc3Cl)c(=O)n(C[C@H]3OC[C@H](N)CO3)c2n1` [compound 6, G-5555] the “Percent Control” value (FLT3(D835H)) was 89%, the “Percent Control” value (GAK) was 51% and the “Percent Control” value (GRK7) was 89%. For the same molecule, the “Percent Control” value (HASPIN) was 87%, the “Percent Control” value (MAP4K2) was 63% and the “Percent Control” value (TIE1) was 100%. The “Percent Control” value (DYRK2) was 100%, the “Percent Control” value (MST4) was 0.5% and the “Percent Control” value (CSNK1G1) was 100%. For the same molecule, the “Percent Control” value (SGK) was 99%, the “Percent Control” value (SBK1) was 98% and the “Percent Control” value (PRKG1) was 100%. The “Percent Control” value (EPHA4) was 100%, the “Percent Control” value (CDK7) was 100% and the “Percent Control” value (CDKL2) was 100%. For the same molecule, the “Percent Control” value (ABL1(Q252H); nonphosphorylated) was 86%, the “Percent Control” value (ABL1(Q252H); phosphorylated) was 97% and the “Percent Control” value (ACVRL1) was 100%. The “Percent Control” value (VPS34) was 86%, the “Percent Control” value (FES) was 100% and the “Percent Control” value (YANK2) was 3.5%. The “Percent Control” value (MARK1) was 100%, the “Percent Control” value (MAP4K3) was 85% and the “Percent Control” value (CSF1R) was 89%. The “Percent Control” value (CSF1R; autoinhibited) was 97%, the “Percent Control” value (KIT(V559D)) was 99% and the “Percent Control” value (LATS1) was 57%. The “Percent Control” value (EPHA8) was 100%, the “Percent Control” value (YSK4) was 70% and the “Percent Control” value (CDK2) was 96%. For the same molecule, the “Percent Control” value (DCAMKL2) was 100%, the “Percent Control” value (CDK3) was 100% and the “Percent Control” value (PLK2) was 75%.
